Source: PubChem BioAssay (NCI)
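Exposure lasted 48 hours, with cells grown in 96-well plates and compounds tested at five concentrations. The concentration for full growth arrest is given as TGI.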

What was measured:
Experiment in all cases: NCI-60 cell line screen, 48 h
SNB-19 CNS = test system: SNB-19 CNS
MDA-N = test system: MDA-N
CCRF-CEM leukemia = test system: CCRF-CEM leukemia
A549 NSCLC = test system: A549 NSCLC
SK-MEL-2 melanoma = test system: SK-MEL-2 melanoma
OVCAR-3 ovarian = test system: OVCAR-3 ovarian
T-47D breast = test system: T-47D breast
A498 renal = test system: A498 renal
RXF 393 renal = test system: RXF 393 renal
U251 CNS = test system: U251 CNS

Structure (SMILES) | TGI (SNB-19 CNS) [µM] | TGI (MDA-N) [µM] | TGI (CCRF-CEM leukemia) [µM] | TGI (A549 NSCLC) [µM] | TGI (SK-MEL-2 melanoma) [µM] | TGI (OVCAR-3 ovarian) [µM] | TGI (T-47D breast) [µM] | TGI (A498 renal) [µM] | TGI (RXF 393 renal) [µM] | TGI (U251 CNS) [µM]
Cc1ccnc2[nH]c(-c3ccc(Cl)cc3)cc(=O)c12 | > 100 | 4.59 | > 100 | > 100 | > 100 | 99.1 | > 100 | 46.6 | > 100 | > 100
Cc1cccc(N=Nc2ccc(O)c(CN(C)C)c2)c1 | > 100 | 75.2 | 4.69 | > 100 | 47.6 | 52.7 | 57.5 | 38.8 | 73.7 | > 100
COc1c(C(=O)CC2c3c(cc4oc(C)cc(=O)c4c3OC)OC(=N)C2c2nc3ccccc3[nH]2)c(O)c(OC)c2occc12 (stereo not given) | > 100 | > 100 | > 100 | > 100 | > 100 | > 100 | > 100 | > 100 | > 100 | > 100
O=C(NC12CC3CC(CC(C3)C1)C2)n1cnc2c(Cl)ncnc21 | > 100 | 45.9 | 45.7 | > 100 | 80.7 | 51.3 | > 100 | > 100 | > 100 | 92.3
CCN1CCC(O)(/C=C/c2ccc(Cl)c(Cl)c2)C(C(=O)/C=C/c2ccc(Cl)c(Cl)c2)C1 (stereo not given) | 3.71 | 2.89 | 1.13 | 1.72 | 3.66 | 1.91 | 2.36 | 2.91 | 2.71 | 3.79
COc1cc([C@@H]2c3cc4c(cc3[C@H](OC3OC5COC(C(C)C)OC5C(O)C3O)C3COC(=O)[C@@H]32)OCO4)cc(OC)c1OC (stereo not given in full) | > 40.6 | 3.53 | > 29.6 | > 100 | 25.4 | 8.55 | 65.5 | 9.96 | 9.46 | > 21.2
CCCCCCCCC/C=C1/CC(CO)(COC(=O)C2CCCCC2)OC1=O (stereo not given) | > 100 | > 100 | > 100 | > 100 | > 100 | > 100 | > 100 | > 100 | > 100 | > 100
CN1CN(c2ccccc2)C2(CCN(C(=O)OC(C)(C)C)CC2)C1=O | > 100 | > 100 | > 100 | > 100 | > 100 | > 100 | > 100 | > 100 | > 100 | > 100
CN(C)CC(O)CNC(=O)Nc1ccccc1 (stereo not given) | > 100 | > 100 | > 100 | > 100 | > 100 | > 100 | > 100 | > 100 | > 100 | > 100
C=C1C(O)C2OC(=O)C(=C)C2C(OC(=O)/C(C)=C/C)CC2(C)OC2C2OC12 (stereo not given) | > 100 | 6.02 | > 100 | > 100 | 38.4 | 26.2 | > 100 | 46.4 | 35.6 | > 100
COC(=O)c1cc(NC(=O)Cn2c3ccccc3c3ccccc32)cn1C | > 100 | > 100 | > 100 | > 100 | > 100 | > 100 | > 100 | > 100 | > 100 | > 100
COc1cc2c(cc1OC)C/C(=N\O)c1cc(OC)c(OC)cc1/C=C\2 | > 65.5 | > 100 | > 100 | > 100 | 44.6 | 17.3 | > 84.3 | > 100 | 38.4 | > 41.1
CC(=O)OC1CC[C@@]2(C)C(=CC[C@@H]3[C@@H]2CC[C@]2(C)Nc4c(cnn4-c4ccc(F)cc4)C[C@@H]32)C1 (stereo not given in full) | > 100 | > 100 | > 100 | > 100 | > 73.6 | > 100 | > 100 | > 83.1 | 11 | 47.3
CCc1c[n+]2c(cc1C1=CN3c4ccccc4[C@]45CCN6C/C(=C/CO)[C@H](C[C@H]64)[C@@H]([C@@H]1O)[C@H]35)-c1[nH]c3ccccc3c1CC2 | > 50 | > 50 | > 50 | > 50 | > 50 | > 50 | > 50 | > 50 | > 50 | > 50
Cn1c(SCc2ccc([N+](=O)[O-])cc2)nnc1C12CC3CC(CC(C3)C1)C2 | > 10 | > 10 | > 10 | > 10 | > 10 | > 10 | > 10 | > 10 | > 10 | > 10
O=C1/C(=C/Cc2ccco2)N=C(c2ccccc2)N1c1nc2ccc(Sc3ccccc3)cc2[nH]1 | 86.7 | 25 | 44.2 | > 100 | 34.8 | 84.8 | > 100 | 30.7 | 36.1 | 43.9
O=C(NNC(=O)c1ccccc1O)c1cccs1 | > 100 | > 100 | > 100 | > 100 | > 100 | > 100 | > 100 | > 100 | > 100 | > 100
CCOP(=O)(OCC)C(Cc1cn(S(=O)(=O)c2ccc(C)cc2)cn1)C(=O)O (stereo not given) | > 100 | > 100 | > 100 | > 100 | > 100 | > 100 | > 100 | > 100 | > 100 | > 100
C#CCn1c(=O)c2cc(OC)c(OC)cc2n(CC#C)c1=O | > 10 | > 10 | > 10 | > 10 | > 10 | > 10 | > 10 | > 10 | > 10 | > 10
CCOC(=O)/C(C(N)=O)=C(/O)c1cnccn1 | > 100 | > 100 | > 100 | > 100 | > 100 | > 100 | > 100 | > 100 | > 100 | > 100
CN(CCCNC(=O)c1[nH]nc2c1ccc1ccccc12)CCCNC(=O)c1[nH]nc2c1ccc1ccccc12 | 37.6 | 4.52 | 29.4 | 37.6 | 23.6 | 29 | 36.1 | 31.9 | 30.5 | 28.4
CC(NC(=O)C(NC(=O)C(NC(=O)C(F)(F)F)C(C)C)C(C)C)C(=O)Oc1c(Cl)c(Cl)c(Cl)c(Cl)c1Cl (stereo not given) | > 100 | > 100 | > 100 | > 100 | > 100 | > 100 | > 100 | > 100 | > 100 | > 100
C1=Nc2ccc(cc2)-c2ccc(cc2)N=Cc2ccccc2OCc2cccc(n2)COc2ccccc21 | 46.4 | > 100 | > 100 | > 100 | > 76.3 | > 100 | > 100 | > 100 | > 84 | > 42.8
O=[N+]([O-])c1cc(-c2ccc([As](=O)(O)O)cc2)ccc1[As](=O)(O)O | > 100 | > 100 | > 100 | > 100 | > 100 | > 100 | > 100 | > 100 | > 100 | > 100
Cc1[nH]c(-c2ccccc2)c(O)c1C(=O)OC1CC(C)CCC1C(C)C (stereo not given) | 31.1 | 29.9 | 31 | 26.2 | 28.2 | 25.2 | 26.8 | 32.7 | 24.3 | 28.9
O=S1(=O)OCCOS(=O)(=O)C1C1c2ccccc2-c2ccccc21 | > 100 | > 100 | 89.4 | > 100 | > 100 | > 100 | > 100 | > 100 | > 100 | 57.9
Nc1nc(Cl)cc(Oc2ccc(Cl)cc2)n1 | > 100 | > 100 | > 100 | > 100 | > 100 | > 100 | > 100 | > 100 | > 100 | > 100
CNC(=O)/C(C#N)=C(\N)N1CCCC1 | > 100 | > 100 | > 100 | > 100 | > 100 | > 100 | > 100 | > 100 | > 100 | > 100
CC(C)(C)c1ccc(OCCOc2ccc(C(C)(C)C)cc2NC=O)c(NC=O)c1 | > 100 | 27.3 | > 45.3 | > 100 | 36.6 | 36.5 | > 86 | 40 | 28.2 | 34.7
c1ccc(C(OCCN2CC3CCC(C2)N3)c2ccccc2)cc1 | > 100 | 79.6 | > 100 | > 100 | > 100 | > 100 | > 100 | > 100 | > 100 | > 100
